Laboratory results published in patent US20250057808A1, “COMPOSITION COMPRISING BETA LACTAM FOR TREATING ALCOHOL DEPENDENCE AND ALCOHOL ASSOCIATED DISEASES OR CONDITIONS” (Temple University of the Commonwealth System of Higher …, priority 2023, published 2025).
“Also recorded” adds a separate entry of the source.

How the values were obtained:
[1] = human liver microsomes in vitro; cited from earlier work
[2] = Ethanol intake, preference, water intake and body weight in male and female P rats (section B); assay type: in vivo, Male and female alcohol-preferring (P) rats; details: for Body weight / Ethanol consumption: 100 mg/kg; for Ethanol consumption / Ethanol preference / Water consumption: vs ethanol-saline group; for Ethanol preference / Water consumption: 100 mg/kg i.p.; for Ethanol preference: Day 1 through Day 5
Method: Male and female alcohol-preferring (P) rats were acquired from Indiana University School of Medicine, Indianapolis, IN at the age of 80-85 days. All animals were single housed in a room with temperature at 22° C. and 50% humidity in a 12 h light/dark cycle. Rats had free access to food and water throughout the experimental procedures. All the experimental procedures were approved by the University of Toledo Institutional Animal Care and Use Committee (IACUC) under IACUC protocol #400160.
At the age of 90-100 days, 5-7 male and female rats were assigned randomly to three groups: (1) Water-drinking (Water-Saline) group with no access to ethanol and served as a control group; (2) Ethanol-Saline group, which was exposed to continuous free-choice access to ethanol (15% and 30%, v/v, concurrently), and water for five weeks, and saline i.p. injections were performed from Days 1-5 on Week 6; and (3) Ethanol-MC-100093 group, which had continuous free-choice access to ethanol (15% and 30%, v/v), and water for five weeks, and MC-100093 i.p. injections were performed from Days 1-5 on Week 6. Ethanol and water intake were measured as g/kg/day. Rats were required to meet the criterion of an average ethanol consumption of 4 g/kg/day to be included in the study, for at least 2 weeks before saline vehicle or MC-100093 i.p. injections, as adopted in previous studies. Average ethanol and water consumptions throughout Week 5 served as a baseline. At Week 6 of the experiment, ethanol-MC-100093 group received MC-100093 at a dose of 100 mg/kg (i.p.) once daily for five days, and ethanol-saline and water-saline groups received saline vehicle as an i.p injection for five consecutive days. Water and ethanol were measured daily 24 hours after the first i.p. injections of saline or MC-100093 and 24 hours after the last i.p. injections of saline or MC-100093.
All statistical analyses were conducted using GraphPad Prism (10). Two-way (mixed) ANOVA followed by Bonferroni multiple comparison post-hoc test was performed to analyze daily ethanol intake, average daily water intake and body weight. One-way ANOVA followed by Newman-Keuls post hoc tests were used to analyze Western blot data. All statistical analyses data were reported as a p<0.05 of significance.
Ethanol preference was calculated as total ethanol consumption/total fluid consumption×100 from daily alcohol and water consumption.

[3] = Ethanol drinking, further studies with MC-100093 100 mg/kg; assay type: in vivo, Male P rats
Method: We used an ethanol drinking paradigm as described previously by Alhaddad, et al. (2014). Briefly, animals started the experimental drinking procedure at age of 90 days. The animals had five weeks of exposure to continuous three-bottle choice drinking, 0%, 15% and 30%, v/v ethanol in water, available concurrently. Daily measurement of ethanol intake was performed (g of ethanol intake/kg of body weight/day). We measured the baseline ethanol drinking by average the intake during the last three weeks. Three groups of P rats (n=8-9/group) exposed to the five weeks ethanol exposure. At week 6, rats in each group received daily intraperitoneal injection of either MC-100093 at dose of 50 mg/kg (Ethanol-MC group), Ceftriaxone at dose of 200 mg/kg (Ethanol-CEF group, which also serves as positive control), or equivolume of saline vehicle (Ethanol group) for five days. This paradigm results in pharmacologically relevant blood alcohol concentration (50-200 mg %). Following the criteria for the development of ethanol dependence, rats whose average ethanol intake <4 g/kg/day were excluded from the study. Beside the ethanol exposed groups, another group of P rats (n=8) exposed to only water and food throughout the exposure procedures (control group).
Further studies were conducted to investigate the impact of MC-100093 at higher dose (100 mg/kg, i.p.) on ethanol consumption and glutamate transporter 1 (GLT-1) expression in medial prefrontal cortex (mPFC) subregions such as prelimbic mPFC (PL) and infralimbic mPFC (IL). Male P rats (n=16) were divided in three groups: a) Control water group was exposed to water only for 5 weeks and received i.p. saline on Week 6 for 5 days; b) Saline group was exposed to free choice of ethanol (15% and 30% and water) for 5 weeks, and received saline (i.p.) on Week 6 for 5 days; and c) MC-100093 group was exposed to free choice of ethanol for 5 weeks and received MC-100093 (100 mg/kg/day, i.p.) for 5 days on Week 6.

[4] = cited from earlier work
glutamate uptake = details: astrocyte-neuron co-culture model, cited from earlier work
[5] = female P rats, 100 mg/kg i.p. 5 days
[6] = male P rats, 100 mg/kg i.p. 5 days

SMILES: C[C@@H](O)[C@H]1C(=O)N[C@@H]1[C@@H](C)C(=O)N1CCN(C)CC1 [MC-100093]
- Stability in liver microsomes [1]: high stability
- Attenuation effect on ethanol consumption, male compared with female P rats ([2]; 100 mg/kg i.p. 5 days): higher attenuation effect on ethanol consumption in male P rats exceeding female P rats
- Body weight [2, 5]: no significant effect on body weights; also recorded: no effect on the body weight
- Ethanol consumption [2, 5]: reduced ethanol consumption in both male and female P rats from Day 1-5; also recorded: significant decrease in ethanol consumption from Day 1 through Day 5; also recorded: decreased ethanol consumption in male and female P rats
- Ethanol preference ([2]; female P rats): significant decrease in percent ethanol preference
- Water consumption ([2]; female P rats): significant increase in water consumption from Day 1 through Day 5
- Body weight [2, 6]: no significant effect on body weights; also recorded: no effect on the body weight
- Ethanol consumption [2, 6]: reduced ethanol consumption in both male and female P rats from Day 1-5; also recorded: significant decrease in ethanol consumption from Day 1 through Day 5; also recorded: decreased ethanol consumption in male and female P rats
- Ethanol preference ([2]; male P rats): significant decrease in percent ethanol preference
- Water consumption ([2]; male P rats): significant increase in water consumption from treatment Day 1 through Day 5
- Reduction in ethanol consumption as compared to control vehicle group ([3]; MC-100093 100 mg/kg i.p.): about 50%
- Body weight (grams) ([3]; MC-100093 100 mg/kg i.p. 5 days): no significant effects
- Water intake (mL/day) ([3]; MC-100093 100 mg/kg i.p. 5 days, vs ethanol/saline, 100 mg/kg): significant increase in water intake; also recorded: increase in water consumption was observed on Days 1-5
- Ethanol consumption (g/kg/24 hr) ([3]; male P rats, MC-100093 100 mg/kg i.p. 5 days on Week 6, vs ethanol/saline, 100 mg/kg): attenuated ethanol intake; also recorded: significantly reduced ethanol consumption on Day 1, 3, 4, and 5; also recorded: reduced ethanol intake on Days 2, 4, 5, 6; also recorded: effect similar to that of ceftriaxone
- Ethanol preference ([3]; male P rats, MC-100093 100 mg/kg/day i.p. 5 days): decreased ethanol preference
- Aqueous solubility [4]: high aqueous solubility
- Enhancement of glutamate uptake (glutamate uptake): 23.5%
- IC50 (glutamate uptake; read-out: IC50 (enhancement of glutamate uptake)): 100 nM
